Experimental data reported in patent publication US20250195483A1, “SPIRO PIPERIDINE DERIVATIVES AS INHIBITORS OF APOL1 AND METHODS OF USING SAME” (Vertex Pharmaceuticals Incorporated, priority 2022, published 2025).

Biological target: T1, APOL1 (Homo sapiens, UniProt O14791)
T1 sequence (O14791 1-398): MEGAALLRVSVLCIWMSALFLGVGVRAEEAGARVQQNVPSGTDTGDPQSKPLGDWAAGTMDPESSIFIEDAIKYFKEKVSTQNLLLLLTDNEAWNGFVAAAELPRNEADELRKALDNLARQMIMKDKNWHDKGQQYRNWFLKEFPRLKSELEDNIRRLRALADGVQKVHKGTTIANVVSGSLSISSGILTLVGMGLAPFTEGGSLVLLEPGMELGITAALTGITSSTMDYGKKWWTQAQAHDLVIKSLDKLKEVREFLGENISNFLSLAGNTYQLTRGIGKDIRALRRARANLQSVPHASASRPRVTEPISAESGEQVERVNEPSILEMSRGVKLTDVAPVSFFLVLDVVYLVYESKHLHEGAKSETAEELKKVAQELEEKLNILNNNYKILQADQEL
Experiment: MultiTox-Fluor Multiplex Cytotoxicity Assay, tet-inducible APOL1 T-REx-HEK293 cells (G0, G1 or G2 clone not specified for Table 20)
Assay type: cell-based
Conditions: tet-induced, 24 hours with compound, ratio of dead to live cells, read-out: IP50 (i.e., IC50 for cell proliferation)
How it was run: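 HEK293 T-REx cells with tet-inducible APOL1 G0, G1 or G2 clone, 23,400/well, treated with tetracycline plus compound (top 10 μM, 10-point 3-fold, duplicate) for 24 h at 37° C. MultiTox-Fluor dead/live fluorescence ratio, normalized to no-tet (100% viability) and 50 ng/mL tet (0% viability) controls, then curve-fitted.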

| SMILES | IC50 |
| --- | --- |
| Cc1ccc2c(c1)C1(CCN(Cc3cnn(CC4(C)COC4)c3)CC1)C(=O)N2 [Compound 24] | ≥ 500 nM |
| CNC(=O)C1OC2(CCN(Cc3cnn(-c4ccccc4)c3)CC2)c2cc(C(F)(F)F)ccc21 (centres unmarked) [Compound 199] | 50 to 500 nM |
| CS(=O)(=O)c1ccc(CN2CCC3(CC2)OC(C(N)=O)c2ccc(Cl)cc23)cc1 (centres unmarked) [Compound 223] | 50 to 500 nM |
| NC(=O)c1cccc(CN2CCC3(CC2)OC(C(N)=O)c2ccc(Cl)cc23)c1 (centres unmarked) [Compound 266] | ≥ 500 nM |
| COc1ccc2c(c1)C1(CCN(Cc3cnn(-c4ccccc4)c3)CC1)OC2C(N)=O (centres unmarked) [Compound 296, 6-methoxy-1′-((1-phenyl-1H-pyrazol-4-yl)methyl)-3H-spiro[isobenzofuran-1,4′-piperidine]-3-carboxamide] | ≥ 500 nM |
| C[C@H]1C[C@@]2(CCN1Cc1cnn(C(F)F)c1)OCCc1ccc(Cl)cc12 [Compound 122] | ≤ 50 nM |
| Cc1ccc(Cn2cc(CN3CC[C@]4(C[C@@H]3C)OCCc3ccc(Cl)cc34)nn2)c(=O)[nH]1 [Compound 174] | 50 to 500 nM |
| CS(=O)(=O)CCn1cc(CN2CCC3(CC2)C(=O)N(Cc2ccccc2)c2ccc(OC(F)F)cc23)cn1 [Compound 86] | ≥ 500 nM |
| NC(=O)C1OC2(CCN(Cc3cnc(C4CC4)o3)CC2)c2cc(Cl)ccc21 (centres unmarked) [Compound 251] | 50 to 500 nM |
| Cn1cc(CN2CCC3(CC2)C(=O)Nc2ccc(CC(F)F)cc23)cn1 [Compound 34] | ≥ 500 nM |
| NC(=O)C1OC2(CCN(Cc3c[nH]c4ccncc34)CC2)c2cc(Cl)ccc21 (centres unmarked) [Compound 264] | ≥ 500 nM |
| CC1(O)CC2(CCN(Cc3cnn(CCS(C)(=O)=O)c3)CC2)c2cc(Cl)ccc21 (centres unmarked) [Compound 303, 5-chloro-1-methyl-1′-[[1-(2-methylsulfonylethyl)pyrazol-4-yl]methyl]spiro[indane-3,4′-piperidine]-1-ol] | ≥ 500 nM |
| O=C1Nc2ccc(Cl)cc2C12CCN(Cc1ccc(OC(F)F)cc1)CC2 [Compound 19] | ≥ 500 nM |
| Cc1noc2ncc(CN3CCC4(CC3)OC(C(N)=O)c3ccc(Cl)cc34)cc12 (centres unmarked) [Compound 237] | 50 to 500 nM |
| C[C@H]1C[C@@]2(CCN1Cc1cn(Cc3ncc(C(N)=O)s3)nn1)OCCc1ccc(Cl)cc12 [Compound 182] | ≤ 50 nM |
| Cc1ccc2c(c1)C1(CCN(Cc3cnn(C)c3)C(C)C1)OCC2 (centres unmarked) [Compound 92] | ≤ 50 nM |
| NC(=O)C1OC2(CCN(Cc3ccno3)CC2)c2cc(Cl)ccc21 (centres unmarked) [Compound 259] | ≥ 500 nM |
| CCc1ccc2c(c1)C1(CCN(Cc3cnn(-c4ccccc4)c3)CC1)OC2C(=O)NC (centres unmarked) [Compound 206, 5-ethyl-N-methyl-1′-[(1-phenylpyrazol-4-yl)methyl]spiro[1H-isobenzofuran-3,4′-piperidine]-1-carboxamide] | 50 to 500 nM |
| Cc1ccc2c(c1)C1(CCN(Cc3cnn(CCS(C)(=O)=O)c3)CC1)C(=O)N2 [Compound 23] | 50 to 500 nM |
| C[C@H]1C[C@@]2(CCN1Cc1cn(C)nn1)OCCc1ccc(Cl)cc12 [Compound 105] | ≤ 50 nM |
| CS(=O)(=O)c1ccc(CN2CCC3(CC2)OC(C(N)=O)c2ccc(Cl)cc23)c(F)c1 (centres unmarked) [Compound 224] | ≥ 500 nM |
| C[C@H]1CC2(CCN1Cc1cnn(CCS(C)(=O)=O)c1)C(=O)Nc1ccc(Cl)cc12 (stereo in doubt) [Compound 74, (2′S, 3R)-5-chloro-2′-methyl-1′-[[1-(2-methylsulfonylethyl)pyrazol-4-yl]methyl]spiro[indoline-3,4′-piperidine]-2-one] | ≥ 500 nM |
| Cc1ccc2c(c1)[C@@]1(CCN(Cc3cnc(NC(C)(C)CO)nc3)[C@@H](C)C1)OCC2 [Compound 95] | ≥ 500 nM |
| Cc1ccc2c(c1)C1(CCN(Cc3cnn(CC(=O)N(C)C)c3)CC1)C(=O)N2 [Compound 25] | ≥ 500 nM |

| SMILES | IC50 |
| --- | --- |
| Cc1ncc(CN2CCC3(CC2)OC(C(N)=O)c2ccc(Cl)cc23)cn1 (centres unmarked) [Compound 215] | ≥ 500 nM |
| CN1C(=O)C2(CCN(Cc3cnn(CCS(C)(=O)=O)c3)CC2)c2cc(OC(F)(F)F)ccc21 [Compound 87] | ≥ 500 nM |
| Cc1ccc(CN2CCC3(CC2)OC(C(N)=O)c2ccc(Cl)cc23)cn1 (centres unmarked) [Compound 227] | ≤ 50 nM |
| Cc1ccc2c(c1)C1(CCN(Cc3cnn(CCS(C)(=O)=O)c3)[C@@H](C)C1)CC2O (stereo partly drawn) [Compound 308, (2′S)-2′,5-dimethyl-1′-[[1-(2-methylsulfonylethyl)pyrazol-4-yl]methyl]spiro[indane-3,4′-piperidine]-1-ol] | ≤ 50 nM |
| C[C@H]1C[C@@]2(CCN1Cc1c[nH]nn1)OCCc1ccc(Cl)cc12 [Compound 106] | ≤ 50 nM |
| NC(=O)C1OC2(CCN(Cc3ccc[nH]c3=O)CC2)c2cc(Cl)ccc21 (centres unmarked) [Compound 270] | ≥ 500 nM |
| CC(O)Cn1cc(CN2CC[C@]3(C[C@@H]2C)OCCc2ccc(Cl)cc23)nn1 (some centres unmarked) [Compound 144] | ≤ 50 nM |
| Cc1n[nH]c(C(F)(F)Cn2cc(CN3CC[C@]4(C[C@@H]3C)OCCc3ccc(Cl)cc34)nn2)n1 [Compound 168] | 50 to 500 nM |
| CN1C(=O)C2(CCN(Cc3cn(CC(C)(CO)CO)nn3)CC2)c2cc(Cl)ccc21 [Compound 44] | ≥ 500 nM |
| C[C@H]1C[C@@]2(CCN1Cc1cn(CC(O)C(C)(C)O)nn1)OCCc1ccc(Cl)cc12 (some centres unmarked) [Compound 143] | ≤ 50 nM |
| CC(C)n1cc(CN2CCC3(CC2)OC(C(N)=O)c2ccc(Cl)cc23)cn1 (centres unmarked) [Compound 220] | ≥ 500 nM |
| Cc1nc(CN2CCC3(CC2)OC(C(N)=O)c2ccc(Cl)cc23)co1 (centres unmarked) [Compound 221] | ≥ 500 nM |
| CC(C)Oc1ccc(CN2CCC3(CC2)C(=O)Nc2ccc(Cl)cc23)cc1 [Compound 7] | 50 to 500 nM |
| Cn1cc(CN2CCC3(CC2)OC(C(N)=O)c2ccc(Cl)cc23)cn1 (centres unmarked) [Compound 216] | ≤ 50 nM |
| CS(=O)(=O)CCn1cc(CN2CCC3(CC2)CNc2ccc(Cl)cc23)cn1 [Compound 305, 5-chloro-1′-[[1-(2-methylsulfonylethyl)pyrazol-4-yl]methyl]spiro[indoline-3,4′-piperidine]] | ≥ 500 nM |
| CNC(=O)C1OC2(CCN(Cc3cnn(-c4cccc(C(F)(F)F)c4)c3)CC2)c2cc(Cl)ccc21 (centres unmarked) [Compound 295, 5-chloro-N-methyl-1′-[[1-[3-(trifluoromethyl)phenyl]pyrazol-4-yl]methyl]spiro[1H-isobenzofuran-3,4′-piperidine]-1-carboxamide] | ≤ 50 nM |
| COc1cncc(CN2CCC3(CC2)C(=O)Nc2ccc(Cl)cc23)c1 [Compound 5] | ≥ 500 nM |
| CNC(=O)C1OC2(CCN(Cc3cnn(C4CCOCC4)c3)CC2)c2cc(Cl)ccc21 (centres unmarked) [Compound 200] | 50 to 500 nM |
| CC(C)(O)[C@H](O)Cn1cc(CN2CCC3(CC2)OC(C(N)=O)c2ccc(Cl)cc23)cn1 (stereo partly drawn) [Compound 278, 5-chloro-1′-[[1-[(2R)-2,3-dihydroxy-3-methyl-butyl]pyrazol-4-yl]methyl]spiro[1H-isobenzofuran-3,4′-piperidine]-1-carboxamide] | ≤ 50 nM |
| C[C@H]1C[C@@]2(CCN1Cc1cn(C(C)(CO)CO)nn1)OCCc1ccc(Cl)cc12 [Compound 153] | ≥ 500 nM |
| CS(=O)(=O)CCn1cc(CN2CCC3(CC2)C(=O)Nc2ccc(Cl)cc23)cn1 [Compound 1, 5-chloro-1′-[[1-(2-methylsulfonylethyl)pyrazol-4-yl]methyl]spiro[indoline-3,4′-piperidine]-2-one] | 50 to 500 nM |
| NC(=O)C1OC2(CCN(Cc3cncnc3)CC2)c2cc(Cl)ccc21 (centres unmarked) [Compound 252] | ≥ 500 nM |
| NC(=O)C1OC2(CCN(Cc3cnn(-c4ccccn4)c3)CC2)c2cc(Cl)ccc21 (centres unmarked) [Compound 201] | ≤ 50 nM |
